For 19 compounds, EC50 results are on record in patent US10508104B2, “6-hydroxy-5-(phenyl/heteroarylsulfonyl)pyrimidin-4(1H)-one as APJ agonists” (Bristol-Myers Squibb Company, priority 2016, dated 2019).

The experiment addresses human APJ receptor (Homo sapiens (Human), UniProt P35414). In words: Intracellular cAMP accumulation assay (APJ hcAMP, HTRF). In kind it is cell-based. Conditions: HEK293 cells stably expressing human APJ receptor; inhibition of forskolin-mediated cAMP production; read-out: Human APJ cAMP EC50 Potency range. In short, it runs like this:
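HEK293 cells stably expressing human APJ, 5,000 per well, incubated 30 min at rt with compound, […] and 2 μM forskolin. cAMP measured by HTRF against a cAMP standard curve as inhibition of forskolin-driven production. EC50 from variable-slope sigmoidal fit.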

Sequence of human APJ receptor (P35414 whole entry): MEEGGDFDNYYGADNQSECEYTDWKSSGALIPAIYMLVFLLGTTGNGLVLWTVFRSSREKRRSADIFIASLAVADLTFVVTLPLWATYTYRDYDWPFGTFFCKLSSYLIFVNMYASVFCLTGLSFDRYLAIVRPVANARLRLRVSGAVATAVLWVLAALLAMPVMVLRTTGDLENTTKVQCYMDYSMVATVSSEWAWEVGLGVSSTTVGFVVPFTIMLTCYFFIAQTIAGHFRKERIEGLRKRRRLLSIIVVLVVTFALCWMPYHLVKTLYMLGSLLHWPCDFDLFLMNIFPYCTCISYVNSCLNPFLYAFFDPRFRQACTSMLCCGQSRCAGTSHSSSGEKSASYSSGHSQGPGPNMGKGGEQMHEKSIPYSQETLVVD

`CCCCc1nc(=O)c(S(=O)(=O)c2ccc(-c3cccnc3C)cc2)c(O)n1C(c1cccc(C#N)c1)C1CC1` (stereo not shown) [Example 460, 3-({2-butyl-6-hydroxy-5-[4-(2-methylpyridin-3-yl)benzenesulfonyl]-4-oxo-1,4-dihydropyrimidin-1-yl}(cyclopropyl)methyl) benzonitrile]: the 50% effective concentration (EC50) lay within 0.01 to 10 nM.
Regarding `CCCCc1nc(=O)c(S(=O)(=O)c2ccc(-c3ccc(F)nc3C)cc2)c(O)n1C(c1cccc(C#N)c1)C1CC1` (stereo not shown) [Example 461, 3-({2-butyl-5-[4-(6-fluoro-2-methylpyridin-3-yl)benzenesulfonyl]-6-hydroxy-4-oxo-1,4-dihydropyrimidin-1-yl}(cyclopropyl)methyl) benzonitrile], the 50% effective concentration (EC50) was in the range of 0.01 to 10 nM.
In the case of `CCCCc1nc(=O)c(S(=O)(=O)c2ccc(-c3ccncc3C)cc2)c(O)n1C(c1cccc(C#N)c1)C1CC1` (stereo not shown) [Example 462, 3-({2-butyl-6-hydroxy-5-[4-(3-methylpyridin-4-yl)benzenesulfonyl]-4-oxo-1,4-dihydropyrimidin-1-yl}(cyclopropyl)methyl) benzonitrile], the EC50 was 0.01 to 10 nM.
In the case of `CCCCc1nc(=O)c(S(=O)(=O)c2ccc(-c3ccccc3C#N)cn2)c(O)n1[C@@H](CC)c1cccc(C#N)c1` [Example 463, 2-[6-({2-butyl-1-[(1S)-1-(3-cyanophenyl)propyl]-6-hydroxy-4-oxo-1,4-dihydropyrimidin-5-yl}sulfonyl)pyridin-3-yl]benzonitrile], the EC50 is 0.01 to 10 nM.
For the compound `CCCCc1nc(=O)c(S(=O)(=O)c2ccc(-c3ccc(F)cc3C(N)=O)cn2)c(O)n1[C@@H](CC)c1cccc(C#N)c1` [Example 464, 2-[6-({2-butyl-1-[(1S)-1-(3-cyanophenyl)propyl]-6-hydroxy-4-oxo-1,4-dihydropyrimidin-5-yl)sulfonyl)pyridin-3-yl]-5-fluorobenzamide], the EC50 fell in the range of 0.01 to 10 nM.
To `CCCCc1nc(=O)c(S(=O)(=O)c2ccc(-c3ccccc3C(N)=O)cc2)c(O)n1[C@@H](CC)c1cccc(C#N)c1` [Example 465, 4′-({2-butyl-1-[(1S)-1-(3-cyanophenyl)propyl]-6-hydroxy-4-oxo-1,4-dihydropyrimidin-5-yl}sulfonyl)-[1,1′-biphenyl]-2-carboxamide] belongs 0.01 to 10 nM; to `CCCCc1nc(=O)c(S(=O)(=O)c2ccc(-c3ccccc3C#N)cc2)c(O)n1[C@@H](CC)c1cccc(C#N)c1` [Example 466, 4′-({2-butyl-1-[(1S)-1-(3-cyanophenyl)propyl]-6-hydroxy-4-oxo-1,4-dihydropyrimidin-5-yl}sulfonyl)-[1,1′-biphenyl]-2-carbonitrile], 0.01 to 10 nM; to `CCCCc1nc(=O)c(S(=O)(=O)c2ccc(-c3ccccc3C(N)=O)cn2)c(O)n1[C@@H](CC)c1cccc(C#N)c1` [Example 467, 2-[6-({2-butyl-1-[(1S)-1-(3-cyanophenyl)propyl]-6-hydroxy-4-oxo-1,4-dihydropyrimidin-5-yl}sulfonyl)pyridin-3-yl]benzamide], 0.01 to 10 nM.
On to `CC[C@@H](c1cccc(C#N)c1)n1c(CC2CC2)nc(=O)c(S(=O)(=O)c2ccc(-c3ccccc3C(N)=O)cc2)c1O` [Example 468, 4′-({1-[(1S)-1-(3-cyanophenyl)propyl]-2-(cyclopropylmethyl)-6-hydroxy-4-oxo-1,4-dihydropyrimidin-5-yl}sulfonyl)-[1,1′-biphenyl]-2-carboxamide], for which the EC50 lay in the range of 0.01 to 10 nM.
With `CC[C@@H](c1cccc(C#N)c1)n1c(CC2CC2)nc(=O)c(S(=O)(=O)c2ccc(-c3ccc(F)cc3C(N)=O)cc2)c1O` [Example 469, 4′-({1-[(1S)-1-(3-cyanophenyl)propyl]-2-(cyclopropylmethyl)-6-hydroxy-4-oxo-1,4-dihydropyrimidin-5-yl}sulfonyl)-4-fluoro-[1,1′-biphenyl]-2-carboxamide], the EC50 lay within 0.01 to 10 nM.
With `CC[C@@H](c1cccc(C#N)c1)n1c(CC2CC2)nc(=O)c(S(=O)(=O)c2ccc(-c3ccncc3C(N)=O)cc2)c1O` [Example 470, 4-[4-({1-[(1S)-1-(3-cyanophenyl)propyl]-2-(cyclopropylmethyl)-6-hydroxy-4-oxo-1,4-dihydropyrimidin-5-yl}sulfonyl)phenyl] pyridine-3-carboxamide], the EC50 lay within 0.01 to 10 nM.
With `CC[C@@H](c1cccc(C#N)c1)n1c(CC2CC2)nc(=O)c(S(=O)(=O)c2ccc(-c3cnccc3C#N)cc2)c1O` [Example 471, 3-[4-({1-[(1S)-1-(3-cyanophenyl)propyl]-2-(cyclopropylmethyl)-6-hydroxy-4-oxo-1,4-dihydropyrimidin-5-yl}sulfonyl)phenyl] pyridine-4-carbonitrile], the 50% effective concentration (EC50) is 0.01 to 10 nM.
The same measure for `CC[C@@H](c1cccc(C#N)c1)n1c(CC2CC2)nc(=O)c(S(=O)(=O)c2ccc(-c3cnccc3C(N)=O)cc2)c1O` [Example 472, 3-[4-({1-[(1S)-1-(3-cyanophenyl)propyl]-2-(cyclopropylmethyl)-6-hydroxy-4-oxo-1,4-dihydropyrimidin-5-yl}sulfonyl)phenyl] pyridine-4-carboxamide]: 0.01 to 10 nM.
For `CC[C@@H](c1cc(F)cc(C#N)c1)n1c(CC2CC2)nc(=O)c(S(=O)(=O)c2ccc(-c3ccc(F)cc3C(N)=O)cc2)c1O` [Example 473, 4′-({1-[(1S)-1-(3-cyano-5-fluorophenyl)propyl]-2-(cyclopropylmethyl)-6-hydroxy-4-oxo-1,4-dihydropyrimidin-5-yl}sulfonyl)-4-fluoro-[1,1′-biphenyl]-2-carboxamide], the EC50 lay within 0.01 to 10 nM.
For `CC[C@@H](c1cccc(C#N)c1)n1c(CC2CC2)nc(=O)c(S(=O)(=O)c2ccc(-c3ccncc3C#N)cc2)c1O` [Example 474, 4-[4-({1-[(1S)-1-(3-cyanophenyl)propyl]-2-(cyclopropylmethyl)-6-hydroxy-4-oxo-1,4-dihydropyrimidin-5-yl}sulfonyl)phenyl] pyridine-3-carbonitrile], the EC50 is 0.01 to 10 nM.
Turning to `CC[C@@H](c1cc(F)cc(C#N)c1)n1c(CC2CC2)nc(=O)c(S(=O)(=O)c2ccc(-c3ccncc3C)cc2)c1O` [Example 475, 3-[(1S)-1-[2-(cyclopropylmethyl)-6-hydroxy-5-[4-(3-methylpyridin-4-yl)benzenesulfonyl]-4-oxo-1,4-dihydropyrimidin-1-yl]propyl]-5-fluorobenzonitrile], the concentration for a half-maximal effect (EC50) fell in the range of 0.01 to 10 nM.
The same measure for `CCCCc1nc(=O)c(S(=O)(=O)c2ccc(-c3ccnc(F)c3C)cc2)c(O)n1[C@H](c1cccc(C#N)c1)C1CC1` [Example 476, 3-[(S)-{2-butyl-5-[4-(2-fluoro-3-methylpyridin-4-yl)benzenesulfonyl]-6-hydroxy-4-oxo-1,4-dihydropyrimidin-1-yl}(cyclopropyl)methyl] benzonitrile]: 0.01 to 10 nM; for `CCCCc1nc(=O)c(S(=O)(=O)c2ccc(-c3ccc(F)cc3C(N)=O)cc2)c(O)n1[C@H](c1cccc(C#N)c1)C1CC1` [Example 477, 4′-({2-butyl-1-[(S)-(3-cyanophenyl)(cyclopropyl)methyl]-6-hydroxy-4-oxo-1,4-dihydropyrimidin-5-yl}sulfonyl)-4-fluoro-[1,1′-biphenyl]-2-carboxamide]: 0.01 to 10 nM; for `C/C=C(/c1cccc(C#N)c1)n1c(CCCC)nc(=O)c(S(=O)(=O)c2ccc(-c3ccncc3C)cc2)c1O` [Example 478, 3-[(1Z)-1-{2-butyl-6-hydroxy-5-[4-(3-methylpyridin-4-yl)benzenesulfonyl]-4-oxo-1,4-dihydropyrimidin-1-yl}prop-1-en-1-yl]benzonitrile]: 0.01 to 10 nM.
